Values quoted from earlier work in patent CN104546722A, “米铂脂质体和制法” (priority 2015, dated 2015).
Like-named read-outs stand apart in the source and are kept apart here.

Assays:
[1] = test system: liver cancer patients (肝癌患者)
[2] = test system: hepatocellular carcinoma patients (肝细胞癌患者)
[3] = after administration
[4] = test system: rodent liver cancer cell line AH109A (鼠肝癌细胞株AH109A)
[5] = test system: hepatocellular carcinoma (肝细胞癌)
[6] = test system: hepatocellular carcinoma patients (肝细胞癌患者); settings: human, in vivo
[7] = test system: hepatocellular carcinoma patients (肝细胞癌患者); settings: human, in vivo; remark: listed apart in the source
[8] = test system: human liver cancer cell line Li-7 (人肝癌细胞株Li-7)
[9] = not given; remark: listed apart in the source

## CCCCCCCCCCCCCC(=O)[O-].CCCCCCCCCCCCCC(=O)[O-].N[C@@H]1CCCC[C@H]1N.[Pt+2] [米铂, 顺-[(1R,2R)-1,2-环己二胺-N,N’]双十四酰氧基合铂]
[1]; 9/16 patients
  CR rate: 56%
[1]; 16 patients
  tolerability: 耐受性好
[2]; 22/83 patients
  TEV (disappearance of mass or 100% tumour necrosis rate): 26.5%
[2]; from administration
  hepatic vascular injury: 未发生肝血管损伤
[2]; human, in vivo
  2-year survival rate: 75.9%
  3-year survival rate: 58.4%

## CCCCCCCCCCCCCC(=O)[O-].CCCCCCCCCCCCCC(=O)[O-].N[C@@H]1CCCC[C@H]1N.O.[Pt+2] [米铂一水合物, (SP-4-2)-[(1R,2R)-1,2环己二氨-N,N′]二(十四酸-O)合铂一水合物]
[3]
  total platinum concentration in blood: 极低,可长时间维持
[4]; 20 mg/mL in suspension
  tumour cell proliferation rate: 明显降低
[4]; single dose of suspension
  antitumour effect: 剂量相关地抗肿瘤作用
[4]; suspension
  inhibition of cancer cell proliferation: 以剂量相关方式抑制癌细胞增殖
After first administration
  total platinum mass concentration in blood (mean): 9.6 ng/mL
After second administration
  total platinum mass concentration in blood (mean): 12.9 ng/mL
[5]; almost all, after administration
  time to disappearance of adverse reactions: 4~6 weeks
[5]; hepatocellular carcinoma
  CR rate (therapeutic effect, TE): 60%
[6]
  1-year survival rate: 90.1%
  2-year survival rate: 75.9%
  3-year survival rate: 58.4%
  efficacy compared with 净司他丁斯酯: 疗效相当
  safety compared with 净司他丁斯酯: 更安全
[7]
  1-year survival rate: 63.6%
  2-year survival rate: 38.2%
[8]; 20 mg/mL in suspension
  tumour cell proliferation rate: 明显降低
[8]; single dose of suspension
  antitumour effect: 剂量相关地抗肿瘤作用
[8]; suspension
  inhibition of cancer cell proliferation: 以剂量相关方式抑制癌细胞增殖
[9]; about 1 year after administration
  Cmax, reduced to: ~17%
[9]; after administration, (ng)
  total platinum concentration in blood (level): 极低,属微量且维持时间长
